Results published in ChEMBL document CHEMBL1125394, “Analgesic dipeptide derivatives. 7. 3,7-Diamino-2-hydroxyheptanoic acid (DAHHA) containing dipeptide analogues of the analgesic compound H-Lys-Trp(Nps)-OMe” (J Med Chem, 1992).
Residues, ends and D or L forms follow the SMILES beside them.

Columns and labels:
Aminopeptidase N [1] = molecular target: T1, Aminopeptidase N (Rattus norvegicus, UniProt P15684); test: (§1) Compound was evaluated for its inhibitory potency against purified membrane bound rat brain Aminopeptidase M using [3H]Leu-enkephalin as substrate; assay type: functional
T1 sequence (P15684 whole entry): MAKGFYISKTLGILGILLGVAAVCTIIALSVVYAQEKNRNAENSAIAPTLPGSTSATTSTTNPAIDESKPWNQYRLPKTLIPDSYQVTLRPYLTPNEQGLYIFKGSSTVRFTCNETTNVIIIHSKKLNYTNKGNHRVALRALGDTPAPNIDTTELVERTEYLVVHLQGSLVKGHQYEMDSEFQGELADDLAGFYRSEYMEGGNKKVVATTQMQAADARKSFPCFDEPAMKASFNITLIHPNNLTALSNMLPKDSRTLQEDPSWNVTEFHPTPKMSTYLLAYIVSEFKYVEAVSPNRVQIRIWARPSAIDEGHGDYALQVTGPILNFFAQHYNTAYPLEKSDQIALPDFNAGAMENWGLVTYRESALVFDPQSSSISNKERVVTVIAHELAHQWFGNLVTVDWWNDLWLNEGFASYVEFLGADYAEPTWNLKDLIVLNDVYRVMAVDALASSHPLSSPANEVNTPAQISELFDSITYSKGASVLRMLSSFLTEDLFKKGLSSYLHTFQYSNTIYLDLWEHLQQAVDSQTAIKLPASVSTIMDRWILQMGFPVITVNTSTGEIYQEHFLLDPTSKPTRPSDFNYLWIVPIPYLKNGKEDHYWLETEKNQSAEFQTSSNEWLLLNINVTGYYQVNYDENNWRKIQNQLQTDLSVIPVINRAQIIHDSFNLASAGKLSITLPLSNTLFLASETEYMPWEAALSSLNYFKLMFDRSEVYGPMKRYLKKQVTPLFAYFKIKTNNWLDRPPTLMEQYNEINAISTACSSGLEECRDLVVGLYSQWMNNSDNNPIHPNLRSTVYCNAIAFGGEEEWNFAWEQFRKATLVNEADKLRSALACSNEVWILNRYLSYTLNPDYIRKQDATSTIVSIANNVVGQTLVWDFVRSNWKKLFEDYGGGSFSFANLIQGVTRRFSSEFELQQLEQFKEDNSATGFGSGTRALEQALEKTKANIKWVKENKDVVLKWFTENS

[2] = (§2) Compound was evaluated for its inhibitory potency against purified membrane bound rat brain APs; assay type: functional
Aminopeptidase B [3] = molecular target: T2, Aminopeptidase B (Rattus norvegicus, UniProt O09175); test: (§3) Compound was evaluated for its inhibitory potency against purified membrane bound rat brain Aminopeptidase B using L-lysine-beta napthylamide as substrate; assay type: functional
T2 sequence (O09175 whole entry): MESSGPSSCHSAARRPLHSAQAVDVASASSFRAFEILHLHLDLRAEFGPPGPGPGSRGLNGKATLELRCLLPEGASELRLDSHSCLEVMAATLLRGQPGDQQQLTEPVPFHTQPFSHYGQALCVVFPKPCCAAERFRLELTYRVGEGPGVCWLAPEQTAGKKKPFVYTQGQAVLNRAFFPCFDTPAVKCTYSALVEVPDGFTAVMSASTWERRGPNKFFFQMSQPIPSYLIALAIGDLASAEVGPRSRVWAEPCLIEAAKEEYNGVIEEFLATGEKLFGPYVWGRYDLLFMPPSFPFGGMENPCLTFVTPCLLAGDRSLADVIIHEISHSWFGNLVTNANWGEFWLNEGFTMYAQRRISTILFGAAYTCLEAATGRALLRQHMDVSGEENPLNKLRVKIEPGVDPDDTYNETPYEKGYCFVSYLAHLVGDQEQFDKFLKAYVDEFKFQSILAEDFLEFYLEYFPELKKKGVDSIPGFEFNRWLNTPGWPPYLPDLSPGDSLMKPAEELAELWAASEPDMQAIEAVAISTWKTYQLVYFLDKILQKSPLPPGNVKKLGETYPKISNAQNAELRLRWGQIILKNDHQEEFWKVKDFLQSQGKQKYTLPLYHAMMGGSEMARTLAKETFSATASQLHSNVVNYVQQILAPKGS

Aminopeptidase B [4] = molecular target: T2, Aminopeptidase B; test: as §3
Aminopeptidase N [5] = molecular target: T1, Aminopeptidase N; test: as §1
Mus musculus [6] = species: Mus musculus; test: Analgesic response measured as percentage change in reaction time (dose 5 ug given intracervically) after 30 min in mice; assay type: functional
Mus musculus [7] = species: Mus musculus; test: Analgesic response measured as percentage change in reaction time (dose 5 ug given intracervically) after 5 min in mice; assay type: functional
Mus musculus [8] = species: Mus musculus; test: Analgesic response measured as percentage change in reaction time (dose 5 ug given intracervically) after 60 min in mice; assay type: functional
Aminopeptidase B [9] = molecular target: T2, Aminopeptidase B; test: Compound was evaluated for its inhibitory potency against purified membrane bound rat brain Aminopeptidase B (AP-B) using L-lysine-beta napthylamide as substrate
Aminopeptidase N [10] = molecular target: T1, Aminopeptidase N; test: Compound was evaluated for its inhibitory potency against purified membrane bound rat brain Aminopeptidase M (AP-M) using [3H]Leu-enkephalin as substrate
Mus musculus [11] = species: Mus musculus; test: Analgesic response measured as percentage change in reaction time (dose 1 ug given intracervically) after 30 min in mice; assay type: functional
Mus musculus [12] = species: Mus musculus; test: Analgesic response measured as percentage change in reaction time (dose 1 ug given intracervically) after 5 min in mice; assay type: functional
Mus musculus [13] = species: Mus musculus; test: Analgesic response measured as percentage change in reaction time ((dose 1 ug given intracervically) after 60 min in mice; assay type: functional
Mus musculus [14] = species: Mus musculus; test: Analgesic response measured as percentage change in reaction time (dose 10 ug given intracervically) after 30 min in mice; Signs of strong neurotoxicity; assay type: functional, organism-based
Mus musculus [15] = species: Mus musculus; test: Analgesic response measured as percentage change in reaction time (dose 10 ug given intracervically) after 60 min in mice; Signs of strong neurotoxicity; assay type: functional, organism-based
Mus musculus [16] = species: Mus musculus; test: Analgesic response measured as percentage change in reaction time (dose 10 ug given intracervically) after 5 min in mice; assay type: functional
[17] = as §2; assay type: tissue-based
Mus musculus [18] = species: Mus musculus; test: Analgesic response measured as percentage change in reaction time (dose 25 ug given intracervically) after 30 min in mice; assay type: functional
Mus musculus [19] = species: Mus musculus; test: Analgesic response measured as percentage change in reaction time (dose 25 ug given intracervically) after 5 min in mice; assay type: functional
Mus musculus [20] = species: Mus musculus; test: Analgesic response measured as percentage change in reaction time (dose 25 ug given intracervically) after 60 min in mice; assay type: functional
Mus musculus [21] = species: Mus musculus; test: Analgesic response measured as percentage change in reaction time (dose 100 ug given intracervically) after 30 min in mice; assay type: functional
Mus musculus [22] = species: Mus musculus; test: Analgesic response measured as percentage change in reaction time (dose 100 ug given intracervically) after 5 min in mice; assay type: functional
Mus musculus [23] = species: Mus musculus; test: Analgesic response measured as percentage change in reaction time (dose 100 ug given intracervically) after 60 min in mice; assay type: functional
Mus musculus [24] = species: Mus musculus; test: Analgesic response measured as percentage change in reaction time (dose 1 ug given intracervically) after 60 min in mice; assay type: functional
Mus musculus [25] = species: Mus musculus; test: Analgesic response measured as percentage change in reaction time (dose given intracervically) after 60 min in mice; assay type: functional
Mus musculus [26] = species: Mus musculus; test: Analgesic response measured as percentage change in reaction time (dose 0.5 ug given intracervically) after 30 min in mice; assay type: functional
Mus musculus [27] = species: Mus musculus; test: Analgesic response measured as percentage change in reaction time (dose 0.5 ug given intracervically) after 5 min in mice; assay type: functional
Mus musculus [28] = species: Mus musculus; test: Analgesic response measured as percentage change in reaction time (dose 0.5 ug given intracervically) after 60 min in mice; assay type: functional
Aminopeptidase B [29] = molecular target: T2, Aminopeptidase B; test: Inhibitory potency against purified membrane bound rat brain Aminopeptidase B (AP-B) using L-lysine-beta napthylamide as substrate
Aminopeptidase N [30] = molecular target: T1, Aminopeptidase N; test: Inhibitory potency against purified membrane bound rat brain Aminopeptidase M (AP-M) using [3H]Leu-enkephalin as substrate
Aminopeptidase B [31] = molecular target: T2, Aminopeptidase B; test: Inhibitory potency against purified membrane bound rat brain Aminopeptidase B using L-lysine-beta napthylamide as substrate; assay type: functional
Aminopeptidase N [32] = molecular target: T1, Aminopeptidase N; test: Inhibitory potency against purified membrane bound rat brain Aminopeptidase M using [3H]Leu-enkephalin as substrate; assay type: functional

| SMILES | IC50 (Aminopeptidase N [1]) | IC50 (Aminopeptidase B [3]) | Change (Mus musculus [6]) | Change (Mus musculus [7]) | Change (Mus musculus [8]) | IC50 (Aminopeptidase B [9]) | IC50 (Aminopeptidase N [10]) | Change (Mus musculus [11]) | Change (Mus musculus [12]) | other results |
| --- | --- | --- | --- | --- | --- | --- | --- | --- | --- | --- |
| COC(=O)[C@H](Cc1c[nH]c2ccccc12)NC(=O)[C@H](O)[C@H](N)CCCCN | 502 µM | > 1000 µM | – | – | – | – | – | – | – | IC50 [2]: 45.5 µM |
| COC(=O)[C@H](CC(C)C)NC(=O)[C@@H](O)[C@H](N)CCCCN | – | – | 21% | <62% | 23% | – | – | – | – | IC50 (Aminopeptidase B [4]): 481 µM; IC50 (Aminopeptidase N [5]): 201 µM |
| COC(=O)[C@@H](Cc1c[nH]c2ccccc12)NC(=O)[C@H](O)[C@@H](N)CCCCN | > 1000 µM | > 1000 µM | -1% | 22% | 2% | – | – | – | – | – |
| COC(=O)[C@H](Cc1c(Sc2ccccc2[N+](=O)[O-])[nH]c2ccccc12)NC(=O)[C@@H](O)[C@H](N)CCCCN | – | – | 80% | 146% | 74% | 101 µM | 7 µM | 63% | 124% | Change (Mus musculus [13]): 47%; Change (Mus musculus [14]): Signs of strong neurotoxicity; Change (Mus musculus [15]): Signs of strong neurotoxicity; Change (Mus musculus [16]): 243% |
| CC(C)C[C@H](NC(=O)[C@@H](O)[C@H](N)Cc1ccccc1)C(=O)O [UBENIMEX] | – | – | – | – | – | – | – | – | – | IC50 [17]: 300 nM; IC50 (Aminopeptidase B [4]): 6 µM; IC50 (Aminopeptidase N [5]): 19.4 µM; Change (Mus musculus [18]): 3%; Change (Mus musculus [19]): 26%; Change (Mus musculus [20]): -3%; Change (Mus musculus [21]): 41%; Change (Mus musculus [22]): 11%; Change (Mus musculus [23]): 59% |
| COC(=O)[C@@H](Cc1c(Sc2ccccc2[N+](=O)[O-])[nH]c2ccccc12)NC(=O)C(O)[C@H](N)CCCCN (some centres undefined) | – | – | 56% | 80% | 37% | 486 µM | 91.2 µM | 13% | 19% | Change (Mus musculus [24]): -2% |
| NCCCC[C@H](N)C(=O)N[C@@H](Cc1c[nH]c2ccccc12)C(=O)O (H-Lys-Trp-OH) | – | – | – | – | – | > 1000 µM | > 1000 µM | – | – | – |
| COC(=O)[C@H](Cc1c[nH]c2ccccc12)NC(=O)[C@@H](O)[C@H](N)CCCCN.Cl.Cl | 10.2 µM | > 1000 µM | 17% | <60% | – | – | – | – | – | Change (Mus musculus [25]): 14%; IC50 [2]: 0.21 µM |
| COC(=O)[C@@H](Cc1c(Sc2ccccc2[N+](=O)[O-])[nH]c2ccccc12)NC(=O)[C@H](O)[C@@H](N)CCCCN | – | – | 75% | 59% | 55% | 982 µM | 225 µM | 21% | 19% | Change (Mus musculus [24]): -1% |
| COC(=O)[C@H](Cc1c(Sc2ccccc2[N+](=O)[O-])[nH]c2ccccc12)NC(=O)[C@@H](N)CCCCN | 261 µM | 400 µM | – | – | – | – | – | <60% | <130% | Change (Mus musculus [24]): 35%; Change (Mus musculus [26]): <40%; Change (Mus musculus [27]): <80%; Change (Mus musculus [28]): 20%; IC50 [2]: 18 µM |
| COC(=O)[C@H](Cc1c[nH]c2ccccc12)NC(=O)[C@@H](O)[C@@H](N)CCCCN.COC(=O)[C@H](Cc1c[nH]c2ccccc12)NC(=O)[C@H](O)[C@@H](N)CCCCN | > 1000 µM | 500 µM | 19% | 26% | -4% | – | – | – | – | – |
| COC(=O)[C@H](Cc1c(Sc2ccccc2[N+](=O)[O-])[nH]c2ccccc12)NC(=O)C(O)[C@@H](N)CCCCN (some centres undefined) | – | – | 64% | 75% | 43% | – | – | 15% | 25% | IC50 (Aminopeptidase B [29]): 583 µM; IC50 (Aminopeptidase N [30]): 852 µM; Change (Mus musculus [24]): -8% |
| COC(=O)[C@@H](Cc1c[nH]c2ccccc12)NC(=O)[C@@H](O)[C@H](N)CCCCN.COC(=O)[C@@H](Cc1c[nH]c2ccccc12)NC(=O)[C@H](O)[C@H](N)CCCCN | – | – | 1% | 10% | 5% | – | – | – | – | IC50 (Aminopeptidase B [31]): > 1 mM; IC50 (Aminopeptidase N [32]): 826 µM |
| COC(=O)[C@@H](Cc1c[nH]c2ccccc12)NC(=O)[C@@H](O)[C@@H](N)CCCCN | > 1000 µM | > 1000 µM | 10% | -1% | 15% | – | – | – | – | – |
| COC(=O)[C@H](CC(C)C)NC(=O)[C@@H](O)[C@@H](N)CCCCN.COC(=O)[C@H](CC(C)C)NC(=O)[C@H](O)[C@@H](N)CCCCN | – | – | 10% | -1% | 15% | 500 µM | > 1000 µM | – | – | – |
